Data: US11684638B2, “Targeted delivery system, system components, and methods” (REGENTS OF THE UNIVERSITY OF MINNESOTA, priority 2016, dated 2023)

Key:
[1] = system: MSCs; assay: MSC cell viability, MTS assay; format: cell-based, human
Method: Cell viability was determined by MTS assay at 3 days, 5 days, and 7 days. After incubation for the designated time period, Ac4ManNAz-containing medium was exchanged with 500 μL of fresh growth medium and 100 μL of the MTS/PMS solution was added to each well. Cells were further incubated for one hour at 37° C. and soluble formazan produced by the live cells was measured at 490 nm using a microplate reader. Cells without Ac4ManNAz treatment were used as a control.

[2] = system: MSCs
Method: Various Ac4ManNAz concentrations were evaluated as follows. MSCs were seeded onto 96-well plate at a density of 1.5×10^3 cells/well in 150 μL of MSCM supplemented with 0, 1 μM, 5 μM, 10 μM, 20 μM, 50 μM, or 100 μM final concentration of Ac4ManNAz. After three days of incubation, the cells were washed twice with DPBS and treated with sulforhodamine B dibenzocyclooctyl (DBCO-sulforhodamine B) (20 μM final concentration) for one hour. Cells were rinsed five times with DPBS and images were taken using a fluorescence microscope. For quantitative analysis, cells treated with Ac4ManNAz were stained with DBCO-carboxyrhodamine and the fluorescence intensity (λex: 485 and λem: 528 nm) was measured using plate reader (FLx800 microplate fluorescence reader, BioTek Instruments, Inc., Winooski, Vt., USA).
Similarly, various Ac4ManNAz incubation times were evaluated by culturing MSCs in 20 μM Ac4ManNAz for different incubation times. The cells were treated as before for microscopy or quantitation of available azide groups. The treatments were staggered to perform the final analysis at the same time to maintain the cell number at the time of analysis.

[3] = system: subcutaneous A549-Luc tumors injected with MSC-Az or control MSC; assay: In vivo click chemistry with intravenous DBCO-Cy5.5; set-up: species or system athymic nude mice
Method: A549-Luc lung tumors were developed in athymic nude mice such that each animal has two tumors, one on each side of the abdomen. When the tumors reached about 100 mm^3, the animals received intratumoral injection (5×10^5 cells/100 μL) of control MSCs in one tumor and MSC-Az in the other tumor of the same animal. One hour following MSC injection, 5 μg of DBCO-Cy5.5 in 100 μL DPBS was injected intravenously per mice. DBCO-Cy5.5 binding to MSC-Az was monitored by imaging at different time intervals (0.5 hour, 1 hour, 5 hours, or 24 hours) using an IVIS Spectrum live animal imager (Xenogen Corp., Alameda, Calif.).

[4] = system: orthotopic ovarian tumors; assay: Antitumor efficacy of glycoengineered MSC pre-incubated with DBCO-functionalized paclitaxel nanoparticles (FIG. 10); format: in vivo, mice; conditions: Kaplan-Meier; intraperitoneal; 2×10^6 MSC-Az; ABRAXANE at 40 mg/kg paclitaxel on day 0, 4, 8
Method: FIG. 10. Antitumor efficacy of glycoengineered MSC pre-incubated with DBCO-functionalized paclitaxel nanoparticles.
Saline-treated animals were used as […] control.

[5] = system: platinum-resistant C200 ovarian cancer cells; assay: Cytotoxicity in co-culture […] assay (FIG. 11); format: cell-based
Method: FIG. 11. IC50 of glycoengineered MSCs in platinum-resistant C200 ovarian cancer cells in co-culture using […] assay (Corning, Inc., Tewksbury, Mass.). The cytotoxic potential of glycoengineered MSCs was determined by co-culturing with C200 cells using a […] assay at 72 hours. For cytotoxicity assessment, C200 cells (20,000/well) were seeded in lower chamber of 24 well […] plate with different concentrations of glycoengineered MSCs in upper chamber. […] However, when incubated at 1:1 ratio of C200 to glycoengineered-MSCs, 75% cytotoxicity was observed.

SMILES: CC(=O)OC[C@H]1OC(OC(C)=O)[C@@H](NC(=O)CN=[N+]=[N-])[C@@H](OC(C)=O)[C@@H]1OC(C)=O (some centres unmarked) [Ac4ManNAz, N-azidoacetylmannosamine-tetraacylated]
- cell viability of MSCs ([1]; 100 μM after five days of incubation): reduced
- viability of MSCs ([1]; up to 50 μM for seven days): unaffected
- azide expression on MSC surface by fluorophore labeling ([2]; 20 μM in culture media): highest expression levels
- surface coverage of azide groups ([2]; three days of incubation): highest surface coverage of azide groups

SMILES: CCN1/C(=C/C=C/C=C/C2=[N+](CCCCCC(=O)NCCC(=O)N3Cc4ccccc4C#Cc4ccccc43)c3ccc4c(S(=O)(=O)[O-])cc(S(=O)(=O)O)cc4c3C2(C)C)C(C)(C)c2c1ccc1c(S(=O)(=O)O)cc(S(=O)(=O)O)cc21 [DBCO-Cy5.5]
- MSC-Az associated fluorescence in tumor ([3]; 24 hours post injection): found even at 24 hours
- fluorescent label in tumors ([3]; one hour post intravenous dosing): detected only in the tumors injected with MSC-Az

SMILES: CC(=O)O[C@H]1C(=O)[C@@]2(C)[C@H]([C@H](OC(=O)c3ccccc3)[C@]3(O)C[C@H](OC(=O)[C@H](O)[C@@H](NC(=O)c4ccccc4)c4ccccc4)C(C)=C1C3(C)C)[C@]1(OC(C)=O)CO[C@@H]1C[C@@H]2O [PTX solution, paclitaxel]
- median survival [4]: 50 days
- IC50 [5]: 4.16 nM
